Values quoted from earlier work, collected in patent US20200345666A1, “HERBAL MEDICINAL TABLET FORMULATION FOR TREATING OBESITY WHICH CAN BE […] ON SASANG CONS[…]” (NUBEBE CO., LTD., priority 2017, published 2020).

Details: taken for 20 weeks or more; Journal of Korean Medicine 2017

CN[C@@H](C)[C@H](O)c1ccccc1 [ephedrine]
weight and body fat loss compared to control group: showed weight and body fat loss
